Assay results taken from ChEMBL document CHEMBL1201862, “PubChem BioAssay data set” (2004).
Activity calls are given as the source filed them.

Experiments:
[1] = molecular target: DNA dC->dU-editing enzyme APOBEC-3A (Homo sapiens, UniProt P31941); experiment: APOBEC3A DNA deaminase inhibitors, dose response, biochemical (AID 504722); format: functional
[2] = molecular target: DNA dC->dU-editing enzyme APOBEC-3G (Homo sapiens, UniProt Q9HC16); experiment: Dose Response confirmation of small molecule APOBEC3G DNA Deaminase Inhibitors via a fluorescence-based single-stranded DNA deaminase assay. [Related pubchem assays (depositor defined):AID493012, AID493028]; format: functional
Coagulation factor XII = molecular target: T1, Coagulation factor XII (Homo sapiens, UniProt P00748); experiment: Factor XIIa Dose Response Confirmation from Single Well HTS. [Related pubchem assays (depositor defined):AID701]; format: functional
T1 sequence (P00748 whole entry): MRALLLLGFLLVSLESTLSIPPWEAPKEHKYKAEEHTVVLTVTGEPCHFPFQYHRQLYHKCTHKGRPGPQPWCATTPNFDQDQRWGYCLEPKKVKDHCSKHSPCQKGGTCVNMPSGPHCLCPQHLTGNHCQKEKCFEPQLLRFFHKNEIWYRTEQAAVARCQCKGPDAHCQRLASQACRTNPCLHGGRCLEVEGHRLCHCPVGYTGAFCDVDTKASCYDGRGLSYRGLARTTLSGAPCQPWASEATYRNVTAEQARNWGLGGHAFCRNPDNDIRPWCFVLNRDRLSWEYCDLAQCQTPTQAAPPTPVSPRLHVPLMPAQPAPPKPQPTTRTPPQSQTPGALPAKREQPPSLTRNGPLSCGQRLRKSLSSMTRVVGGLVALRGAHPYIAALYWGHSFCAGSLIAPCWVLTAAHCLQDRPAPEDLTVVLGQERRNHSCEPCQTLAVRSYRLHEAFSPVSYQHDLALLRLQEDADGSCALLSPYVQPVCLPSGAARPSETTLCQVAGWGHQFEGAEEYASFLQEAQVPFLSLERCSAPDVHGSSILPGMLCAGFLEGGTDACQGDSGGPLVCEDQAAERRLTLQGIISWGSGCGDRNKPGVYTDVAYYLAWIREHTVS

[3] = molecular target: Eukaryotic translation initiation factor 4E (Mus musculus, UniProt P63073); experiment: eIF4E–eIF4G protein interaction inhibitors, dose response, biochemical, TR-FRET (AID 855); format: functional;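 further: potency for disrupting eIF4E binding to eIF4GI seen as loss of FRET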
[4] = cytotoxicity in HEK-293T cells, dose response, cytotoxicity control for BCR NF-kB inhibitor project, luminescence, B-cell screen hits (AID 489021); format: functional, cell-based;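 further: HEK-293T cells carrying an NF-kB luciferase reporter; cells exposed to compound for about 14 hours before viability readout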
[5] = molecular target: T2, RNA-binding protein pos-1 (Caenorhabditis elegans, UniProt G5EF15); experiment: inhibitors of POS-1/mex-3 RNA binding, dose response, biochemical, fluorescence polarization (AID 1964);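 further: purified POS-1 fused to maltose binding protein made in E. coli; potency of compounds blocking POS-1 binding to fluorescent RNA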
T2 sequence (G5EF15 whole entry): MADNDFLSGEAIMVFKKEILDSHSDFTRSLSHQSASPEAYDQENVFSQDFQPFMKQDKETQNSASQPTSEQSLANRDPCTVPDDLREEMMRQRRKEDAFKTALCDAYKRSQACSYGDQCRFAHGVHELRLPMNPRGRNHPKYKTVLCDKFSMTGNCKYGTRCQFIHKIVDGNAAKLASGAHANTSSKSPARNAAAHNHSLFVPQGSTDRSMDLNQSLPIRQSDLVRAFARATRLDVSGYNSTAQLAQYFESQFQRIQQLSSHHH

[6] = molecular target: T3, Runt-related transcription factor 1/Core-binding factor subunit beta (Homo sapiens, UniProt Q01196+Q13951); experiment: inhibitors of RUNX1 Runt–CBFb-SMMHC binding, primary screen, biochemical, FRET, Cerulean-Runt, Venus-CBFb-SMMHC, uHTS (AID 1434); format: protein assay;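 further: partner is the CBFb-SMMHC leukemia fusion protein rather than wild-type CBFb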
[7] = molecular target: T4, Zinc finger protein mex-5 (Caenorhabditis elegans, UniProt Q9XUB2); experiment: MEX-5/TCR-2 RNA interaction inhibitors, dose response, biochemical, C. elegans, fluorescence polarization (AID 1960)
T4 sequence (Q9XUB2 whole entry): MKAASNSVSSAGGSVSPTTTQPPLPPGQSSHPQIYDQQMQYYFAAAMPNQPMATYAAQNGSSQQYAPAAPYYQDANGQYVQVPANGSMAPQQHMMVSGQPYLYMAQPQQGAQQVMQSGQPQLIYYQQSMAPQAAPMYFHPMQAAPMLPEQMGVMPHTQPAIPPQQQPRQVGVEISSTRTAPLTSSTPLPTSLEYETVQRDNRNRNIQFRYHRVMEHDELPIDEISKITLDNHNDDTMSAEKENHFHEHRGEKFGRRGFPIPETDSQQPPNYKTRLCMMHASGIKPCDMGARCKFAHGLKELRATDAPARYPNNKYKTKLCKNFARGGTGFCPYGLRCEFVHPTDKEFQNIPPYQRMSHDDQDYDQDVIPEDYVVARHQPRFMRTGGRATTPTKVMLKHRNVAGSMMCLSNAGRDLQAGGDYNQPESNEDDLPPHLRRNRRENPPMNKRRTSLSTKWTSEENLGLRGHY

[8] = molecular target: T3, Runt-related transcription factor 1/Core-binding factor subunit beta; experiment: inhibitors of RUNX1 Runt–CBFb-SMMHC binding, biochemical, TR-FRET (AID 1438); format: protein assay
[9] = molecular target: Intestinal-type alkaline phosphatase (Homo sapiens, UniProt P09923); experiment: Dose Response confirmation of uHTS hits from a small molecule inhibitors of human intestinal alkaline phosphatase via a luminescent assay. [Related pubchem assays (depositor defined):AID2544, AID2574]; format: functional
Trypsin = Trypsin (Sus scrofa, UniProt P00761); experiment: porcine trypsin inhibitors, dose response, selectivity assay for Rce1 protease inhibitor project, biochemical, quenched peptide fluorescence, cherry-pick (AID 488789)
CAAX prenyl protease 2 = CAAX prenyl protease 2 (Saccharomyces cerevisiae S288c, UniProt Q03530); format: biochemical
[10] = molecular target: Glyceraldehyde-3-phosphate dehydrogenase (Homo sapiens, UniProt P04406)
[11] = molecular target: T5, Alkaline phosphatase, tissue-nonspecific isozyme (Homo sapiens, UniProt P05186); experiment: human TNAP enzyme inhibitors, SAR follow-up, biochemical, luminescent, dose response (AID 1056)
T5 sequence (P05186 whole entry): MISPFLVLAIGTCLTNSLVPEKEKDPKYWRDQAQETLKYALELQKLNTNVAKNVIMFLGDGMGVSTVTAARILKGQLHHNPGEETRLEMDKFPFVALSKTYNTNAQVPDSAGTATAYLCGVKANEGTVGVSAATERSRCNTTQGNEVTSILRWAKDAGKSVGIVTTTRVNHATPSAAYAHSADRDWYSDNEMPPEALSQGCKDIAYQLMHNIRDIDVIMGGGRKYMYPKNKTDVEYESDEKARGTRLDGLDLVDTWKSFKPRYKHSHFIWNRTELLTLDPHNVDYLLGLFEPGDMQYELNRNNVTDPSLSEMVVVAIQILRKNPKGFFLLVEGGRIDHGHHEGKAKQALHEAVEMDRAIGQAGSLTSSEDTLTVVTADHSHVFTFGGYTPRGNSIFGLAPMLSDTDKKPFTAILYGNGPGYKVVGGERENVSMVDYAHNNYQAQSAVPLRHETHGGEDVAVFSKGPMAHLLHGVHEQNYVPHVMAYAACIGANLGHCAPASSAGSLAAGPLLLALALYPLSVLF

[12] = molecular target: Induced myeloid leukemia cell differentiation protein Mcl-1 (Homo sapiens, UniProt Q07820); format: functional
[13] = molecular target: T6, Rac GTPase-activating protein 1 (Homo sapiens, UniProt Q9H0H5); experiment: MgcRacGAP GTPase-activating activity inhibitors, confirmation, biochemical, ADP Hunter fluorescence, primary and confirmatory (AID 624330); format: functional
T6 sequence (Q9H0H5 whole entry): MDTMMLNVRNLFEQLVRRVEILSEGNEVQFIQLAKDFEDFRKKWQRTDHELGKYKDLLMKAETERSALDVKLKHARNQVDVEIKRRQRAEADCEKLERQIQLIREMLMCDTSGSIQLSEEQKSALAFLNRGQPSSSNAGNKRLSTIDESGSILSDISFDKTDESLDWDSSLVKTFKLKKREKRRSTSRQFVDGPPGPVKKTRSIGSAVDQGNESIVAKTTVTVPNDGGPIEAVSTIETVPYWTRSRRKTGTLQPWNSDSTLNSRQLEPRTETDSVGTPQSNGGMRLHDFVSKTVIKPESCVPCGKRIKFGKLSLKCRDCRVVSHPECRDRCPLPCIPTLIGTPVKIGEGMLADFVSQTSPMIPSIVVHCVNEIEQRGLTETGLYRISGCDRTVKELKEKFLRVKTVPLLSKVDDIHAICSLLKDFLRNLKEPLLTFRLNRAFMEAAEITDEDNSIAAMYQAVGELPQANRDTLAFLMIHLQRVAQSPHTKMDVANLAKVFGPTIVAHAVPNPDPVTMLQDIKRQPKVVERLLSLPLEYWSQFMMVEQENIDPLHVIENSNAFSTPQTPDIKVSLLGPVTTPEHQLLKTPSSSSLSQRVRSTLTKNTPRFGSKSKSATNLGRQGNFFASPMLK

Trypanosoma cruzi = experiment: growth inhibition of intracellular Trypanosoma cruzi, dose response, cell-based, plate reader, dry powder, set 3 (AID 493197); format: functional
[14] = molecular target: Glucose-6-phosphate 1-dehydrogenase (Homo sapiens, UniProt P11413); experiment: human G6PD enzyme inhibitors, dose response, selectivity assay for P. falciparum G6PD inhibitor project, biochemical, fluorescence (AID 504792); format: functional
[15] = molecular target: T7, Eukaryotic translation initiation factor 2-alpha kinase 3 (Homo sapiens, UniProt Q9NZJ5); experiment: Dose response cell-based high-throughput screening assay to measure PERK inhibition. [Related pubchem assays: 1416 ]; format: functional
T7 sequence (Q9NZJ5 whole entry): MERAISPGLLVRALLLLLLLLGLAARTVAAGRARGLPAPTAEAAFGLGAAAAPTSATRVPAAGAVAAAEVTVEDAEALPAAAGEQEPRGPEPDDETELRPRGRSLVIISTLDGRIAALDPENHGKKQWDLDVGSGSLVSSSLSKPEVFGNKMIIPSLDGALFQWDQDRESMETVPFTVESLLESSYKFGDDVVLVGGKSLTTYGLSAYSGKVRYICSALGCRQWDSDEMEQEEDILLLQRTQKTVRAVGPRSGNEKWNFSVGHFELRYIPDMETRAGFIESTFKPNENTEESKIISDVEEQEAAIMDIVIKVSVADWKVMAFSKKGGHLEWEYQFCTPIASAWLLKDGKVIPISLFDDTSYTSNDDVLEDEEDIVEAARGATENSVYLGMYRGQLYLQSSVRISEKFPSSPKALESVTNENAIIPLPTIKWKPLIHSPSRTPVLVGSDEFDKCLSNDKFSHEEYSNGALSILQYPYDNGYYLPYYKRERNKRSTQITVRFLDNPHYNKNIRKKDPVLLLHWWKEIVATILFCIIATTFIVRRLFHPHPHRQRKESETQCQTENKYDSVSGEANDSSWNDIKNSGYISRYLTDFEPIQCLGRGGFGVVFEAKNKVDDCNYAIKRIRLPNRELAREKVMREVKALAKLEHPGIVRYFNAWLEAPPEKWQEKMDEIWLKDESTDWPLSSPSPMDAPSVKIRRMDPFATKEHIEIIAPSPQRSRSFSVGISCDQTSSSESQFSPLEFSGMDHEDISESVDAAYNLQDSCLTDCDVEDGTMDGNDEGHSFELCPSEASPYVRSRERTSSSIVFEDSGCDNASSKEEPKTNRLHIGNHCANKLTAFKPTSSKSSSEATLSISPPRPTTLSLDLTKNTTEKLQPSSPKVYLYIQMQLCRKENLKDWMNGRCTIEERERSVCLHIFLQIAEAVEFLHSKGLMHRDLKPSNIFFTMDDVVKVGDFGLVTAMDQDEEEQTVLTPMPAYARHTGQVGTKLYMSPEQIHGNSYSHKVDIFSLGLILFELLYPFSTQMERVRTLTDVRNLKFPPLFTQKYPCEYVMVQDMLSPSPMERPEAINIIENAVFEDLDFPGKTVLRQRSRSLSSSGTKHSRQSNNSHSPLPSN

[16] = molecular target: T7, Eukaryotic translation initiation factor 2-alpha kinase 3; experiment: Counterscreen assay for PERK inhibitors: Dose response cell-based high throughput screening assay to measure inhibition of PERK at 6 hours. [Related pubchem assays: 1522, 1416 ]; format: functional

Chain of DNA dC->dU-editing enzyme APOBEC-3A (P31941 whole entry): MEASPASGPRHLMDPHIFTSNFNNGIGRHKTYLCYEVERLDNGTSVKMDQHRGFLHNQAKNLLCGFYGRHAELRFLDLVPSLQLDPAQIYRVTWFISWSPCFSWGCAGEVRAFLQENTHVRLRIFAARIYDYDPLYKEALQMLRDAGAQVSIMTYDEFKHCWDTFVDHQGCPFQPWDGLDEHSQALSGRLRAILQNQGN
T3 sequence (Q01196 whole entry, the tested form may be a part): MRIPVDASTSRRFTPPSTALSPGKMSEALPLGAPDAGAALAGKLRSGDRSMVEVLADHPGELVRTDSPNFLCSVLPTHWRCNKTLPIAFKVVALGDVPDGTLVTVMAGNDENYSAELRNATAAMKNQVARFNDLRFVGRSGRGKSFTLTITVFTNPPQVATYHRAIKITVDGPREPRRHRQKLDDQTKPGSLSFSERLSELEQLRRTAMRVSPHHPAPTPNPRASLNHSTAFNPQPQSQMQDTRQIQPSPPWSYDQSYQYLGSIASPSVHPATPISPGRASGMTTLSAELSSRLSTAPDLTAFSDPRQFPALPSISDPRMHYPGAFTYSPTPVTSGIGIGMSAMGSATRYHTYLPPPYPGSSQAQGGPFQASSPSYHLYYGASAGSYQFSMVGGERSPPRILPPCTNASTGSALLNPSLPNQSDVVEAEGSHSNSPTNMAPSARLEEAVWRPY
T3 sequence (Q13951 whole entry, the tested form may be a part): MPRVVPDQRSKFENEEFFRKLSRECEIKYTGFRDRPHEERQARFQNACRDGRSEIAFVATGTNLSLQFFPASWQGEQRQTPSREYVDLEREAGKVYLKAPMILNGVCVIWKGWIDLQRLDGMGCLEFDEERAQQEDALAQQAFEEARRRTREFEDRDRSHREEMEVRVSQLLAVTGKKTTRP
Chain of Eukaryotic translation initiation factor 4E (P63073 whole entry): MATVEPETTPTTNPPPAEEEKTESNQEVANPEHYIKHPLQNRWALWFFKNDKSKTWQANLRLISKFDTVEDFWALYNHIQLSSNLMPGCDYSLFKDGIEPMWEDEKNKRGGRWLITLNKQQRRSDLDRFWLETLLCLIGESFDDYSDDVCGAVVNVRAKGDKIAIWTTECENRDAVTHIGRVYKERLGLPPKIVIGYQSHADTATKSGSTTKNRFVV
Chain of DNA dC->dU-editing enzyme APOBEC-3G (Q9HC16 whole entry): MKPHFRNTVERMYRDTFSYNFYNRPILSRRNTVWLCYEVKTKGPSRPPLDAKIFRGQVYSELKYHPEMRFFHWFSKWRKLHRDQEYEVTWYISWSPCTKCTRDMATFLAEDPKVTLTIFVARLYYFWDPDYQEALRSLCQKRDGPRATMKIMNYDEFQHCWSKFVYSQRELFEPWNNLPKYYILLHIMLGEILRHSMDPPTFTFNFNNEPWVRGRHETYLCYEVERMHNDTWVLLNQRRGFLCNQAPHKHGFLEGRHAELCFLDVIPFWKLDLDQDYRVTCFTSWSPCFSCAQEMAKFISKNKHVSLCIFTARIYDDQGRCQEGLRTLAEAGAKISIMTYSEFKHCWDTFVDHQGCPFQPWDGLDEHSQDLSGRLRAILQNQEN
Chain of Induced myeloid leukemia cell differentiation protein Mcl-1 (Q07820 whole entry): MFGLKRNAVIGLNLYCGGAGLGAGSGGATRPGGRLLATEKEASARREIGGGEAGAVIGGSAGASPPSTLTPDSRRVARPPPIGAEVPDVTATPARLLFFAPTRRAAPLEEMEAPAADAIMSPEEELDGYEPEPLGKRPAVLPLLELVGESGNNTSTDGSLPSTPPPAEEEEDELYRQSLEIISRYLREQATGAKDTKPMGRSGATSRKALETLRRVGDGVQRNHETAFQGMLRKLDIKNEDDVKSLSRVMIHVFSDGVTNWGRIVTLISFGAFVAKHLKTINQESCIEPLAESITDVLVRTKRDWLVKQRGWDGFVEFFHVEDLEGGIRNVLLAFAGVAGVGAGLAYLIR
Chain of CAAX prenyl protease 2 (Q03530 whole entry): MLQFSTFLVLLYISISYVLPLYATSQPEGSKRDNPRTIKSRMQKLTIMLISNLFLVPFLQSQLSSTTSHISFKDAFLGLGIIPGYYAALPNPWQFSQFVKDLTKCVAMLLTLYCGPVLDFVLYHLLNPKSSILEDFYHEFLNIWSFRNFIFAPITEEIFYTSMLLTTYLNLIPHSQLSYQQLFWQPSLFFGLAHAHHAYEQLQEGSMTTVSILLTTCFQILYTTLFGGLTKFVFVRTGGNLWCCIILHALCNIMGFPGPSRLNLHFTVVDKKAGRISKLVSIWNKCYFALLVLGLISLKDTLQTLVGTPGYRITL
Chain of Trypsin (P00761 whole entry): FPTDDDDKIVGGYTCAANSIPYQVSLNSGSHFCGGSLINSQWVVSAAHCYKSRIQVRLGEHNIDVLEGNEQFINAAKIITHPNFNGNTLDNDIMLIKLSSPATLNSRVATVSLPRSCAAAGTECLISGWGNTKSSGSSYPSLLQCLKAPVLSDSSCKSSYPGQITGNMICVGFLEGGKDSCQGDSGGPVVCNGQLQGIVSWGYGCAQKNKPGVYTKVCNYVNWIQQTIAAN
Chain of Glyceraldehyde-3-phosphate dehydrogenase (P04406 whole entry): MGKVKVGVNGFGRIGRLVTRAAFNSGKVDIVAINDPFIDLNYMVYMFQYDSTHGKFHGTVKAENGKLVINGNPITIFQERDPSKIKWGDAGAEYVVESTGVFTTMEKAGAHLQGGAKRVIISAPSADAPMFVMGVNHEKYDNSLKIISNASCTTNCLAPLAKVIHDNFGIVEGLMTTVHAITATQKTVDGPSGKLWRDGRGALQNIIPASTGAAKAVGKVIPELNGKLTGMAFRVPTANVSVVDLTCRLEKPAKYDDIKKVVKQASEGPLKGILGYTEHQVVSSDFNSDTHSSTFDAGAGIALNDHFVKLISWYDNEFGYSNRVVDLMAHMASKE
Chain of Intestinal-type alkaline phosphatase (P09923 whole entry): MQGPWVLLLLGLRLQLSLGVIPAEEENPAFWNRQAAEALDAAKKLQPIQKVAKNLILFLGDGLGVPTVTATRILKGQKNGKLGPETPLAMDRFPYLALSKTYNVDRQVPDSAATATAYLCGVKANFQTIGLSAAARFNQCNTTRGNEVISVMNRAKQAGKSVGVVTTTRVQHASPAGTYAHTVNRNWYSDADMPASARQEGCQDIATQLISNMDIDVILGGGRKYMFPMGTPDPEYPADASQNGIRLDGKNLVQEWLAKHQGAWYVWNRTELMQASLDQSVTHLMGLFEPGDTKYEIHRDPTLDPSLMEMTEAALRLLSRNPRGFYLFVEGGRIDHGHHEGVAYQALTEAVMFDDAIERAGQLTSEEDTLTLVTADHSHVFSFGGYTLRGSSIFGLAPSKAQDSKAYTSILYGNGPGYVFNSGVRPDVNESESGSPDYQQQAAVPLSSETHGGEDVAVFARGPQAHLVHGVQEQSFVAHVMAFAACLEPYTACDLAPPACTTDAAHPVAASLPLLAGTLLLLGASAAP
Chain of Glucose-6-phosphate 1-dehydrogenase (P11413 whole entry): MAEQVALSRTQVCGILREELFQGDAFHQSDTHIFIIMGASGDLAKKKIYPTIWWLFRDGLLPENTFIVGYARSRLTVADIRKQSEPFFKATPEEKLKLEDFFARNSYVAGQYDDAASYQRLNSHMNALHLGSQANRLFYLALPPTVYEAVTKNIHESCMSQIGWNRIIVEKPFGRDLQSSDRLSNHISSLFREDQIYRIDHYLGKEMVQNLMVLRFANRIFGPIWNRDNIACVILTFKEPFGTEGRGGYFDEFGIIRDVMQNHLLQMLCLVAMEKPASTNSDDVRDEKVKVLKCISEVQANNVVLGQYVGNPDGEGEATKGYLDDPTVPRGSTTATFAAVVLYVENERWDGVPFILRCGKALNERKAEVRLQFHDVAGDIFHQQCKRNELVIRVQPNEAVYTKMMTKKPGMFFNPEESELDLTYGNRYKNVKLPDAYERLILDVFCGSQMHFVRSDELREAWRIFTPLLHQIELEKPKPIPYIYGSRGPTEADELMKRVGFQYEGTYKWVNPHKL

SMILES: Cc1ccc(-c2cn3c(S)nnc3s2)cc1
- IC50 [1]: > 100 µM (inactive)
- IC50 [2]: 2.61 µM (active)

SMILES: Cc1ccc(-c2n[nH]c(=O)c3ccccc23)cc1S(=O)(=O)NCCO
- IC50 (Coagulation factor XII): > 50 µM (inactive)

SMILES: CSc1cccc(NC(=S)N(Cc2ccc(C)cc2)Cc2cccnc2)c1
- IC50 [3]: 50 µM (inactive)

SMILES: COC(=O)c1c(NC(=O)c2cccc([N+](=O)[O-])c2)sc(C(N)=O)c1C
- IC50 [4]: > 80 µM (inactive)

SMILES: Oc1ccc(-c2cnns2)c(O)c1
- EC50 [5]: 45.5 µM (active)
- IC50 [6]: 31.5 µM (active)
- EC50 [7]: 10.4 µM (active)
- IC50 [8]: 19.9 µM (active)

SMILES: COc1ccc(CCN2C(=O)c3ccncc3C2=O)cc1OC
- IC50 [9]: > 100 µM (inactive)

SMILES: COC(=O)c1cnn2c3c(c(C)nc12)CCCC3
- AC50 (Trypsin): 8.29 µM (active)
- AC50 (CAAX prenyl protease 2): 10.3 µM (active)

SMILES: COc1ccccc1C(=O)Nc1cnc2ccccc2c1
- IC50 [10]: > 10 µM (inconclusive)
- IC50 [11]: > 10 µM (inactive)

SMILES: O=C1C=CC(=Nc2nc(O)c(-c3c(O)[nH]c4ccccc34)s2)C=C1
- IC50 [12]: 1.67 µM (active)
- IC50 [3]: 50 µM (inactive)
- IC50 [13]: 59.2 µM (active)

SMILES: CN(Cc1ccccc1)C(=O)C1CCCN(Cc2ccccc2)C1 (stereo not given)
- AC50 (Trypanosoma cruzi): 5.07 µM (active)

SMILES: COc1cc(/C=N/n2cc(-c3ccccc3)nc2S)cc(OC)c1O
- IC50 [1]: > 100 µM (inactive)
- IC50 [14]: > 80 µM (inactive)
- IC50 [2]: 5.9 µM (active)

SMILES: N/C(=N\N=C\c1ccc([N+](=O)[O-])cc1)c1nonc1N
- EC50 [15]: > 55.7 µM (not active)
- EC50 [16]: > 55.7 µM (not active)

SMILES: C/C(=N/N=C1\SCC(=O)N1c1ccccc1)c1ccc(C)cc1
- EC50 [15]: > 55.7 µM (not active)
- EC50 [16]: > 55.7 µM (not active)
